{
  "source": "patent US10351550B2",
  "about": "“Substituted quinazoline compounds and methods of use thereof” (Araxes Pharma LLC, priority 2015, dated 2019)",
  "target": "T1, KRAS G12C 1-169, his-tagged protein, GDP-loaded (Homo sapiens, UniProt P01116, G12C)",
  "T1 construct": "KRAS G12C 1-169, his-tagged protein, GDP-loaded",
  "assay": "Biochemical assay: covalent binding (% modification) to KRAS G12C by mass spectrometry",
  "description": "Test compounds were prepared as 10 mM stock solutions in DMSO (Fisher cat# BP-231-100). KRAS G12C 1-169, his-tagged protein, GDP-loaded was diluted to 2 μm in buffer (20 mM Hepes, 150 mM NaCl, 1 mM MgCl2). Compounds were tested for activity as follows:\nCompounds were diluted to 50× final test concentration in DMSO in 96-well storage plates. Compound stock solutions were vortexed before use and observed carefully for any sign of precipitation. Dilutions were as follow: • 1. For 100 μM final compound concentration, compounds were diluted to 5000 μM (5 μl 10 mM compound stock+5 μl DMSO and mixed well by pipetting. • 2. For 30 μM final compound concentration, compounds were diluted to 1500 μM (3 μl 10 mM compound stock+17 μl DMSO) and mixed well by pipetting. • 3. For 10 μM final compound concentration, compounds were diluted to 500 μM (2 μl 10 mM compound stock+38 μl DMSO) and mixed well by pipetting. 49 μl of the stock protein solution was added to each well of a 96-well PCR plate (Fisher cat#1423027). 1 μl of the diluted 50× compounds were added to appropriate wells in the PCR plate using 12-channel pipettor. Reactions were mixed carefully and thoroughly by pipetting up/down with a 200·1 multi-channel pipettor. […] 5·1 of 2% formic acid (Fisher cat# A117) in DI H2O was then added to each well followed by mixing with a pipette. The plate was then resealed with aluminum seal and stored on dry ice until analyzed as described below.\nThe above described assays were analyzed by mass spectrometry according to one of the following two procedures:\nThe MS instrument is set to positive polarity, 2 GHz resolution, and low mass (1700) mode and allowed to equilibrate for 30 minutes. The instrument is then calibrated, switched to acquisition mode and the appropriate method loaded.\nAfter another 30 minute equilibration time, a blank batch (i.e., buffer) is run to ensure equipment is operating properly. The samples are thawed at 37° C. for 10 minutes, briefly centrifuged, and transfer to the bench top. Wells A1 and H12 are spiked with 1 uL 500 uM internal standard peptide, and the plates centrifuged at 2000×g for 5 minutes. The method is then run and masses of each individual well recorded.\nThe masses (for which integration data is desired) for each well are pasted into the platemap and exported from the analysis. Masses for the internal standards are exported as well. The data at 50 ppm is extracted for the +19 charge state, and identity of well A1 is assigned using the internal standard spike and integrated. Peak data is exported as a TOF list and the above steps are repeated individually, for the +20, 21, 22, 23, 24, and 25 charge states.\nThe masses and peak intensities of KRAS G12C protein species were measured using a Dionex RSLCnano system (Thermo Scientific) connected to a Q Exactive Plus mass spectrometer (Thermo Scientific).\n[…] of sample was each loaded onto a Aeris™ 3.6 μm WIDEPORE C4 200 Å, LC Column 50×2.1 mm column maintained at 40° C. at a flow rate of 600 μl min^1 with 20% Solvent A (0.1% formic acid in H2O) and 80% Solvent B (0.1% formic acid in acetonitrile). The liquid chromatography conditions were 20% solvent B for 1 min, 20% to 60% solvent B for 1.5 min, 60% to 90% solvent for 0.5 min, 90% solvent B for 0.2 min, 90% to 20% solvent B for 0.2 min, and then equilibrated for 1.6 min before the following sample injection. The flow rate was maintained at 600 μl min^1 throughout the sample analysis.\nThe mass spectrometer was operated in profile mode at a resolution of 17500, 5 microscans, using 50 msec max injection time and an AGC target of 1e6, and a full mass range from 800-1850 m/z was recorded. The HCD trapping gas was optimized for maximum sensitivity for intact proteins. The ionization method was electrospray ionization, which used a spray voltage of 4 kV, sheath gas flow set to 50 au, auxiliary gas flow set to 10 au and sweep gas flow set to 1 au. […]",
  "key": {"[1]": {"conditions": "binding activity determined at 4 hours"}, "[2]": {"conditions": "binding activity determined at 6 hours"}, "[3]": {"conditions": "binding activity determined at 2 hours"}},
  "note": "Marks after values point to notes of the source that are not given here.",
  "data": [
    {"smiles": "C=CC(=O)N1CCCC(n2cnc3c(F)c(-c4c(O)cccc4F)c(Cl)cc3c2=O)C1", "note": "(stereo not shown) [Compound 1, 3-(1-acryloylpiperidin-3-yl)-6-chloro-8-fluoro-7-(2-fluoro-6-hydroxyphenyl)quinazolin-4(3H)-one]", "values": [
      {"measurement": "Binding %", "setting": "[1]", "result": "++^† (++ indicates binding activity from 5% up to 50%)"}
    ]},
    {"smiles": "C=CC(=O)NC1CC(n2cnc3c(F)c(-c4c(O)cccc4F)c(Cl)cc3c2=O)C1", "note": "(stereo not shown) [Compound 2, N-(3-(6-chloro-8-fluoro-7-(2-fluoro-6-hydroxyphenyl)-4-oxoquinazolin-3(4H)-yl)cyclobutyl)acrylamide]", "values": [
      {"measurement": "Binding %", "setting": "[1]", "result": "++^† (++ indicates binding activity from 5% up to 50%)"},
      {"measurement": "covalently bind to KRAS G12C, extent (% of protein in the well covalently bound to test compound)", "setting": "time and concentration not given", "result": "greater than 30%"}
    ]},
    {"smiles": "C=CC(=O)Nc1cnc2c(F)c(-c3c(O)cccc3F)c(Cl)cc2c1N1CCN(C(C)=O)CC1", "note": "[Compound 3, N-(4-(4-acetylpiperazin-1-yl)-6-chloro-8-fluoro-7-(2-fluoro-6-hydroxyphenyl)quinolin-3-yl)acrylamide]", "values": [
      {"measurement": "Binding %", "setting": "[1]", "result": "++^† (++ indicates binding activity from 5% up to 50%)"}
    ]},
    {"smiles": "C=CC(=O)N1CC(n2cnc3c(F)c(-c4c(O)cccc4F)c(Cl)cc3c2=O)C1", "note": "[Compound 4, 3-(1-acryloylazetidin-3-yl)-6-chloro-8-fluoro-7-(2-fluoro-6-hydroxyphenyl)quinazolin-4(3H)-one]", "values": [
      {"measurement": "Binding %", "setting": "[1]", "result": "++^† (++ indicates binding activity from 5% up to 50%)"}
    ]},
    {"smiles": "C=CC(=O)N1CC(n2cnc3cc(-c4c(O)cccc4F)ccc3c2=O)C1", "note": "[Compound 5, 3-(1-acryloylazetidin-3-yl)-7-(2-fluoro-6-hydroxyphenyl) quinazolin-4(3H)-one]", "values": [
      {"measurement": "Binding %", "setting": "[2]", "result": "++^‡ (++ indicates binding activity from 5% up to 50%)"}
    ]},
    {"smiles": "C=CC(=O)N1CC(n2cnc3c(F)c(-c4cc(O)ccc4Cl)c(Cl)cc3c2=O)C1", "note": "[Compound 6, 3-(1-acryloylazetidin-3-yl)-6-chloro-7-(2-chloro-5-hydroxyphenyl)-8-fluoroquinazolin-4(3H)-one]", "values": [
      {"measurement": "Binding %", "setting": "[3]", "result": "++; (++ indicates binding activity from 5% up to 50%)"},
      {"measurement": "Binding %", "setting": "[1]", "result": "+++^† (+++ indicates binding activity 50% or greater)"}
    ]},
    {"smiles": "C=CC(=O)N1CC(n2cnc3c(F)c(-c4cc(O)cc5ccccc45)c(Cl)cc3c2=O)C1", "note": "[Compound 7, 3-(1-acryloylazetidin-3-yl)-6-chloro-8-fluoro-7-(3-hydroxynaphthalen-1-yl)quinazolin-4(3H)-one]", "values": [
      {"measurement": "Binding %", "setting": "[3]", "result": "+++; (+++ indicates binding activity 50% or greater)"},
      {"measurement": "Binding %", "setting": "[2]", "result": "+++^‡ (+++ indicates binding activity 50% or greater)"}
    ]},
    {"smiles": "C=CC(=O)N1CC(n2cnc3c(F)c(-c4c(C)ccc5cn[nH]c45)c(Cl)cc3c2=O)C1", "note": "[Compound 8, 3-(1-acryloylazetidin-3-yl)-6-chloro-8-fluoro-7-(6-methyl-1H-indazol-7-yl)quinazolin-4(3H)-one]", "values": [
      {"measurement": "Binding %", "setting": "[2]", "result": "++^‡ (++ indicates binding activity from 5% up to 50%)"}
    ]},
    {"smiles": "C=CC(=O)N1CC(n2cnc3c(F)cc(-c4ccccc4O)cc3c2=O)C1", "note": "[Compound 9, 3-(1-acryloylazetidin-3-yl)-8-fluoro-6-(2-hydroxyphenyl) quinazolin-4(3H)-one]", "values": [
      {"measurement": "Binding %", "setting": "[2]", "result": "+^‡ (+ indicates binding activity up to 5%)"}
    ]},
    {"smiles": "C=CC(=O)N1CC(n2cnc3c(Cl)c(-c4cc(O)cc5ccccc45)c(F)cc3c2=O)C1", "note": "[Compound 10, 3-(1-acryloylazetidin-3-yl)-8-chloro-6-fluoro-7-(3-hydroxynaphthalen-1-yl)quinazolin-4(3H)-one]", "values": [
      {"measurement": "Binding %", "setting": "[3]", "result": "+++; (+++ indicates binding activity 50% or greater)"},
      {"measurement": "Binding %", "setting": "[2]", "result": "+++^‡ (+++ indicates binding activity 50% or greater)"}
    ]},
    {"smiles": "C=CC(=O)N1CC(n2cnc3c(Cl)c(-c4cc(O)cc5ccccc45)c(N)cc3c2=O)C1", "note": "[Compound 12, 3-(1-acryloylazetidin-3-yl)-6-amino-8-chloro-7-(3-hydroxynaphthalen-1-yl)quinazolin-4(3H)-one]", "values": [
      {"measurement": "Binding %", "setting": "[3]", "result": "++ (++ indicates binding activity from 5% up to 50%)"}
    ]},
    {"smiles": "C=CC(=O)N1CC(n2cnc3c(Cl)c(-c4cc(O)cc5ccccc45)cc(O)c3c2=O)C1", "note": "[Compound 14, 3-(1-acryloylazetidin-3-yl)-8-chloro-5-hydroxy-7-(3-hydroxynaphthalen-1-yl)quinazolin-4(3H)-one]", "values": [
      {"measurement": "Binding %", "setting": "[3]", "result": "+++ (+++ indicates binding activity 50% or greater)"}
    ]}
  ]
}
